The test concerns the target T1, PSMA-expressing LNCaP cells (Homo sapiens, UniProt Q04609).
T1 construct: PSMA-expressing LNCaP cells; endogenous in cells; host or cells: LNCaP
The experiment in a line: Binding competition assay against 3H-PSMA-617 on LNCaP cells. To be noted: for remaining activity at 0.01 µM / remaining activity at 0.1 µM: 10 nM 3H-PSMA-617, 2 h at 37° C., triplicates; for remaining activity at 0.01 µM: competing non-radiolabeled compound 10 nM; for remaining activity at 0.1 µM: competing non-radiolabeled compound 100 nM; for competition against 3H-PSMA-617 on PSMA-expressing LNCaP cells (in words): comparison between examples. As to the method: Cells were incubated at 37° C. and 5% CO2 over night. […] After addition of the compounds in growth media the cells were swiveled slightly on a shaker mixing for 10 min followed by incubation for 2 h at 37° C., 5% C02. Following the incubation time the supernatant was removed by pipetting and cells were washed twice with ice cold PBS (total of 800 μl). Cells were lysed in 500 μl of 0.3M NaOH (PanReac AppliChem ITW Reagents) by vigorous shaking for 15 min and the cell lysated pipetted into scintillator tubes (S207-[…]® Scintillation Vials 6.5 ml #S207, Simport). In the following the wells were washed with 500 μl PBS and the washing PBS added to the corresponding samples in the sincitallator tubes. To each sample in the scintillator tubes 4 mL of Ultima Gold liquid scintillation cocktail (Sigma-Aldrich #L8286) was added and the samples let stand for at least 30 min. Thereafter radioactivity was counted in a Tri-Carb Liquid Scinzillation Analyzer (Perkin Elmer).

T1 sequence (Q04609 whole entry): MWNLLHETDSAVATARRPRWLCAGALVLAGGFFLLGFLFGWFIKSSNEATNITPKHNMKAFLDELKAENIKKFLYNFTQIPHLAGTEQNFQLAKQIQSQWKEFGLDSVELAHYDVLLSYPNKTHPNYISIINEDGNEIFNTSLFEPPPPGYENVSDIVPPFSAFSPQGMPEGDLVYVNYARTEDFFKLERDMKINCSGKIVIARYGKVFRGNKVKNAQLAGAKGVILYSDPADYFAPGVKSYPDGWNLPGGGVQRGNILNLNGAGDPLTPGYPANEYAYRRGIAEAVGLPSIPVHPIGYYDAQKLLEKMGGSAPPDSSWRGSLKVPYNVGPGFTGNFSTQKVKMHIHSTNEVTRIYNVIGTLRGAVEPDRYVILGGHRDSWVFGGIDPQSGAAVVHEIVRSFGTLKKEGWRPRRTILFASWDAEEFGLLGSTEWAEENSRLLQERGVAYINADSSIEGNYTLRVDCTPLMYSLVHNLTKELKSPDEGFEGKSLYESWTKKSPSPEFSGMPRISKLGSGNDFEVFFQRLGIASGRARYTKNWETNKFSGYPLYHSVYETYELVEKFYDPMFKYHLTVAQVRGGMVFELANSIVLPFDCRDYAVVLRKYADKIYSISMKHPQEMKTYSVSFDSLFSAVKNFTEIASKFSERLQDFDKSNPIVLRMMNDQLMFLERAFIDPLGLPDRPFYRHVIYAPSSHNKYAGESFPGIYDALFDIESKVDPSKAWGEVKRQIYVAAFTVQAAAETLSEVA

As for `NCc1ccc(C(=O)N[C@@H](Cc2ccc3ccccc3n2)C(=O)NCCCC[C@H](NC(=O)N[C@@H](CCC(=O)O)C(=O)O)C(=O)O)nc1` [Example 34-A, N^6—{N-[5-(aminomethyl)pyridine-2-carbonyl]-3-(quinolin-2-yl)-L-alanyl}-N^2-{[(1S)-1,3-dicarboxypropyl]carbamoyl}-L-lysine], the “competition against 3H-PSMA-617 on PSMA-expressing LNCaP cells (in words)” value is reported as “improved competition”. Under “LNCaP cells”, the remaining activity at 0.01 µM came to 50% and the remaining activity at 0.1 µM came out at 9%.
As to `NC[C@H]1CC[C@H](C(=O)N[C@@H](CCCCNC(N)=O)C(=O)NCCCC[C@H](NC(=O)N[C@@H](CCC(=O)O)C(=O)O)C(=O)O)CC1` [Example 5-A, N^6—{N^2-[(1r,4S)-4-(aminomethyl)cyclohexane-1-carbonyl]-N^6-carbamoyl-L-lysyl}-N^2-{[(1S)-1,3-dicarboxypropyl]carbamoyl}-L-lysine], for the setting “LNCaP cells”, the remaining activity at 0.01 µM came out at 109% and the remaining activity at 0.1 µM was determined as 112%.
For `O=C(O)CC[C@H](NC(=O)N[C@@H](CCCCNC(=O)[C@H](Cc1cc2ccccc2cn1)NC(=O)[C@H]1CC[C@H](CNC(=O)CN2CCN(CC(=O)O)CCN(CC(=O)O)CCN(CC(=O)O)CC2)CC1)C(=O)O)C(=O)O` [Example 36-B, N^6-{3-(isoquinolin-3-yl)-N-[(1r,4S)-4-({2-[4,7,10-tris(carboxymethyl)-1,4,7,10-tetraazacyclododecan-1-yl]acetamido}methyl)cyclohexane-1-carbonyl]-L-alanyl}-N^2-{[(1S)-1,3-dicarboxypropyl]carbamoyl}-L-lysine], where the note is “LNCaP cells”, the remaining activity at 0.01 µM turned out to be 92% and the remaining activity at 0.1 µM worked out at 29%.
The matching figures for `CNCC[C@H]1CC[C@H](C(=O)N[C@H](Cc2cc(OC)c3ccccc3c2)C(=O)NCCCC[C@H](NC(=O)N[C@@H](CCC(=O)O)C(=O)O)C(=O)O)CC1` [Example 35-A, (3R,10S,14S)-3-[(4-methoxynaphthalen-2-yl)methyl]-1-{(1r,4S)-4-[2-(methylamino)ethyl]cyclohexyl}-1,4,12-trioxo-2,5,11,13-tetraazahexadecane-10,14,16-tricarboxylic acid]: 113% and 60%.
Regarding `NC[C@H]1CC[C@H](C(=O)N[C@H](Cc2ccc3cnccc3c2)C(=O)NCCCC[C@H](NC(=O)N[C@@H](CCC(=O)O)C(=O)O)C(=O)O)CC1` [Example 44-A, (3R,10S,14S)-1-[(1r,4S)-4-(aminomethyl)cyclohexyl]-3-[(isoquinolin-6-yl)methyl]-1,4,12-trioxo-2,5,11,13-tetraazahexadecane-10,14,16-tricarboxylic acid], where the note is “LNCaP cells”, the remaining activity at 0.01 µM amounted to 85% and the remaining activity at 0.1 µM came to 68%.
The matching figures for `NC[C@H]1CC[C@H](C(=O)N[C@@H](Cc2csc3ccccc23)C(=O)NCCCC[C@H](NC(=O)N[C@@H](CCC(=O)O)C(=O)O)C(=O)O)CC1` [Example 43-A, N^6—{N-[(1r,4S)-4-(aminomethyl)cyclohexane-1-carbonyl]-3-(1-benzothiophen-3-yl)-L-alanyl}-N^2-{[(1S)-1,3-dicarboxypropyl]carbamoyl}-L-lysine]: 96% and 82%.
The matching figures for `NC[C@H]1CC[C@H](C(=O)N[C@@H](Cc2cc(F)c(F)c(F)c2)C(=O)NCCCC[C@H](NC(=O)N[C@@H](CCC(=O)O)C(=O)O)C(=O)O)CC1` [Example 6-A, N^6—{N-[(1r,4S)-4-(aminomethyl)cyclohexane-1-carbonyl]-3,4,5-trifluoro-L-phenylalanyl}-N^2-{[(1S)-1,3-dicarboxypropyl]carbamoyl}-L-lysine]: 98% and 86%.
On the same counts, the results for `NC[C@H]1CC[C@H](C(=O)N[C@@H](Cc2cccc(S(F)(F)(F)(F)F)c2)C(=O)NCCCC[C@H](NC(=O)N[C@@H](CCC(=O)O)C(=O)O)C(=O)O)CC1` [Example 16-A, N^6—{N-[(1r,4S)-4-(aminomethyl)cyclohexane-1-carbonyl]-3-(pentafluoro-lambda^6-sulfanyl)-L-phenylalanyl}-N^2-{[(1S)-1,3-dicarboxypropyl]carbamoyl}-L-lysine] are 79% and 90%.
Consider `O=C(O)CC[C@H](NC(=O)N[C@@H](CCCCNC(=O)[C@H](Cc1ccc2ccccc2c1)NC(=O)[C@H]1CC[C@H](CNC(=O)CN2CCN(CC(=O)O)CCN(CC(=O)O)CCN(CC(=O)O)CC2)CC1)C(=O)O)C(=O)O` [PSMA-617, reference compound], for which, for the setting “unlabeled PSMA-617 at 5000 nM (500 fold excess), LNCaP cells”, the “Non-specific binding: remaining binding of 3H-PSMA-617 in the presence of unlabeled PSMA-617” value is on record as “below 5%”.
On to `CNc1cc2ccccc2cc1C[C@@H](NC(=O)[C@H]1CC[C@H](CNC(=O)CN2CCN(CC(=O)O)CCN(CC(=O)O)CCN(CC(=O)O)CC2)CC1)C(=O)NCCCC[C@H](NC(=O)N[C@@H](CCC(=O)O)C(=O)O)C(=O)O` [Example 39-B, (3R,10S,14S)-3-{[3-(methylamino)naphthalen-2-yl]methyl}-1,4,12-trioxo-1-[(1r,4S)-4-({2-[4,7,10-tris(carboxymethyl)-1,4,7,10-tetraazacyclododecan-1-yl]acetamido}methyl)cyclohexyl]-2,5,11,13-tetraazahexadecane-10,14,16-tricarboxylic acid], for which, under “LNCaP cells”, the remaining activity at 0.01 µM was found to be 81% and the remaining activity at 0.1 µM worked out at 32%.
On the same counts, the results for `NC[C@H]1CC[C@H](C(=O)NC(Cc2ccc3ccccc3c2)C(=O)NCCCC[C@H](NC(=O)N[C@@H](CCC(=O)O)C(=O)O)C(=O)O)CC1` (stereo partly drawn) [Example 1-A, (3S,10S,14S)-1-[(1r,4S)-4-(aminomethyl)cyclohexyl]-3-[(naphthalen-2-yl)methyl]-1,4,12-trioxo-2,5,11,13-tetraazahexadecane-10,14,16-tricarboxylic acid] are 90% and 45%.
On the same counts, the results for `NC[C@H]1CC[C@H](C(=O)N[C@@H](Cc2cc3ccccc3cn2)C(=O)NCCCC[C@H](NC(=O)N[C@@H](CCC(=O)O)C(=O)O)C(=O)O)CC1` [Example 36-A, N^6—{N-[(1r,4S)-4-(aminomethyl)cyclohexane-1-carbonyl]-3-(isoquinolin-3-yl)-L-alanyl}-N^2-{[(1S)-1,3-dicarboxypropyl]carbamoyl}-L-lysine] are 98% and 73%.
On the same counts, the results for `NC[C@H]1CC[C@H](C(=O)N[C@H](Cc2ccc3cccnc3c2)C(=O)NCCCC[C@H](NC(=O)N[C@@H](CCC(=O)O)C(=O)O)C(=O)O)CC1` [Example 45-A, (3R,10S,14S)-1-[(1r,4S)-4-(aminomethyl)cyclohexyl]-1,4,12-trioxo-3-[(quinolin-7-yl)methyl]-2,5,11,13-tetraazahexadecane-10,14,16-tricarboxylic acid] are 93% and 87%.
As for `NC[C@H]1CC[C@H](C(=O)N[C@@H](Cc2ccc(C3CCC3)cc2)C(=O)NCCCC[C@H](NC(=O)N[C@@H](CCC(=O)O)C(=O)O)C(=O)O)CC1` [Example 18-A, N^6—{N-[(1r,4S)-4-(aminomethyl)cyclohexane-1-carbonyl]-4-cyclobutyl-L-phenylalanyl}-N^2-{[(1S)-1,3-dicarboxypropyl]carbamoyl}-L-lysine], under “LNCaP cells”, the remaining activity at 0.01 µM came out at 78% and the remaining activity at 0.1 µM was 79%.
The matching figures for `NCc1ccc(C(=O)N[C@@H](Cc2ccc3ccccc3c2)C(=O)NCCCC[C@H](NC(=O)N[C@H](CCC(=O)O)C(=O)O)C(=O)O)nc1` [Example 25-A-D, (3S,10S,14R)-1-[5-(aminomethyl)pyridin-2-yl]-3-[(naphthalen-2-yl)methyl]-1,4,12-trioxo-2,5,11,13-tetraazahexadecane-10,14,16-tricarboxylic acid]: 79% and 67%.
Turning to `O=C(O)CC[C@H](NC(=O)N[C@@H](CCCCNC(=O)[C@H](Cc1ccc2ccccc2c1)NC(=O)c1ccc(CNC(=O)CN2CCN(CC(=O)O)CCN(CC(=O)O)CCN(CC(=O)O)CC2)nc1)C(=O)O)C(=O)O` [Example 26-B, (3S,10S,14S)-3-[(naphthalen-2-yl)methyl]-1,4,12-trioxo-1-[6-({2-[4,7,10-tris(carboxymethyl)-1,4,7,10-tetraazacyclododecan-1-yl]acetamido}methyl)pyridin-3-yl]-2,5,11,13-tetraazahexadecane-10,14,16-tricarboxylic acid], the “competition against 3H-PSMA-617 on PSMA-expressing LNCaP cells (in words)” value was “improved competition in comparison to the cyclohexyl examples 1-A and 1-B”. For the same compound, under “LNCaP cells”, the remaining activity at 0.01 µM amounted to 53% and the remaining activity at 0.1 µM came out at 6%.
Regarding `NC[C@H]1CC[C@H](C(=O)N[C@@H](CCCNC(=O)c2cnccn2)C(=O)NCCCC[C@H](NC(=O)N[C@@H](CCC(=O)O)C(=O)O)C(=O)O)CC1` [Example 20-A, N^6—{N^2-[(1r,4S)-4-(aminomethyl)cyclohexane-1-carbonyl]-N^5-(pyrazine-2-carbonyl)-L-ornithyl}-N^2-{[(1S)-1,3-dicarboxypropyl]carbamoyl}-L-lysine], under “LNCaP cells”, the remaining activity at 0.01 µM was determined as 88% and the remaining activity at 0.1 µM was 82%.
On the same counts, the results for `NC[C@H]1CC[C@H](C(=O)N[C@@H](CCCc2ccccc2)C(=O)NCCCC[C@H](NC(=O)N[C@@H](CCC(=O)O)C(=O)O)C(=O)O)CC1` [Example 3-A, N^6—{N-[(1r,4S)-4-(aminomethyl)cyclohexane-1-carbonyl]-5-phenyl-L-norvalyl}-N^2-{[(1S)-1,3-dicarboxypropyl]carbamoyl}-L-lysine] are 100% and 88%.

The term remaining activity denotes the signal under treatment as a percentage of the control signal.

The values above are taken from patent publication US20230072421A1, “TARGETED RADIOPHARMACEUTICALS FOR THE DIAGNOSIS AND TREATMENT OF PROSTATE CANCER” (Bayer AS, priority 2019, published 2023).
